The source of these data is patent US9493522B2, “Discovery of candidate biomarkers of in vivo apoptosis by global profiling of caspase cleavage sites” (THE REGENTS OF THE UNIVERSITY OF CALIFORNIA, priority 2008, dated 2016).

Experiment [1] has as its system Jurkat cells. Put plainly: Immunoblotting of caspase substrate proteolysis during apoptosis. In kind it is cell-based, human. The procedure: Jurkat cells at a density of 1×10^6 cells/ml were treated with etoposide (50 μM) for 0, 2, 4, 8, 12, and 24 hours prior to harvesting. Harvested cells were pelleted at 2,000×g and 25° C. for 5 minutes, washed twice with phosphate buffered saline, and lysed at a concentration of 2×10^7 cells/ml in 1.0% SDS, phosphate buffered saline, 100 μM Z-VAD-FMK, 100 μM E-64, 1 mM PMSF, 1 mM AEBSF, 5 mM EDTA, and 10 mM sodium butyrate. Whole cell lysates were sonicated to shear genomic DNA, normalized to a protein concentration of approximately 2 mg/ml, as determined by BCA assay (Pierce). Cell lysates for each apoptotic timepoint were then analyzed by SDS-PAGE and Western blot. Mouse monoclonal anti-caspase-3 (#9668) and rabbit polyclonal anti-HDAC3 (#2632) antibodies were purchased from Cell Signaling Technology. Mouse monoclonal anti-DFF45 (#611036) antibody was purchased from BD Transduction Laboratories. Goat polyclonal anti-N-Cor (#sc-1611) and rabbit polyclonal anti-HDAC7 (#sc-11412) antibodies were purchased from Santa Cruz Biotechnology. Rabbit polyclonal anti-TBLR1 (#A300-408A), rabbit polyclonal anti-SHARP (#A301-119A), and rabbit polyclonal anti-RBBP7 (#A300-959A) antibodies were purchased from Bethyl Laboratories. Rabbit polyclonal anti-SMRTe (#06-891) antibody was purchased from Millipore. Western blots were imaged using SuperSignal West Femto Substrate (Pierce) with a Fluor Chem SP imager (Alpha Innotech). DNA fragmentation of whole cell DNA was analyzed by agarose gel with the Apoptotic DNA Ladder Kit (Roche).

Experiment [2] concerns Jurkat cells. Put plainly: Subtiligase N-terminal labeling and LC/MS/MS degradomic analysis of apoptotic Jurkat cells. The format is cell-based, human. The following applies: Jurkat cells treated with etoposide (50 μM, 12 hours).
Experimental: Normal cells were harvested for experiments at a density of 1×10^6 cells/ml. For apoptotic samples, cells at a density of 1×10^6 cells/ml were treated with etoposide (50 μM) for 12 hours prior to harvesting. Harvested cells (0.1 to 1 billion) were pelleted at 2,000×g and 25° C. for 5 minutes, washed twice with phosphate buffered saline, and lysed at a typical concentration of 2×10^8 cells/ml in 1.0% TRITON X-100 detergent, 100 mM BICINE pH 8.0, 100 μM Z-VAD-FMK, 100 μM E-64, 1 mM PMSF, 1 mM AEBSF, and 5 mM EDTA. […] Clarified supernatant was immediately used in ligation reactions at a protein concentration of approximately 20 mg/ml, as determined by Bradford assay (Bio-Rad).
Subtiligase (1 μM), biotinylated peptide ester (1 mM), and DTT (2 mM) were added to either control or apoptotic cell lysate. Ligation reactions were typically left to proceed at room temperature for 60 minutes. Samples were then denatured by direct addition of solid guanidine hydrochloride to a final concentration of 6 M, reduced by addition of neutralized TCEP (2 mM), heated at 95° C. for 15 minutes, cooled to room temperature, and alkylated by addition of iodoacetamide (6 mM) and incubation at room temperature in the dark for 1 hour. […]
Setting [3] is: Jurkat cells, 50 μM etoposide, FIG. 5A.

The structures appear in SMILES notation. Residues, ends and D or L forms follow the SMILES beside them. *: point of attachment. Cbz = O=C(OCc1ccccc1)*; CH2F = FC*

Regarding `COC(=O)C[C@H](NC(=O)[C@H](C)NC(=O)[C@@H](NC(=O)OCc1ccccc1)C(C)C)C(=O)CF` [Z-VAD(OMe)-fmk] (Cbz-Val-Ala-Asp(OMe)-CH2F), the “Cleavage of representative substrates HDAC7, Ku80, RCOR2, TBLR1, and UBP36 in presence of caspase inhibitor” value in the experiment with Jurkat cells [1] (etoposide-treated Jurkat cells, FIG. 5B) was “blocked”.

For `COc1cc([C@@H]2c3cc4c(cc3[C@@H](O[C@@H]3O[C@@H]5CO[C@@H](C)O[C@H]5[C@H](O)[C@H]3O)[C@H]3COC(=O)[C@H]23)OCO4)cc(OC)c1O` [etoposide], the “N-termini identified in apoptotic cells derived from P1 aspartate cleavages” value in the experiment on Jurkat cells [2] (large-scale (2D LC/MS/MS) experiments) came to 43%. Also, the “N-termini identified in apoptotic cells derived from P1 aspartate cleavages” value with Jurkat cells [2] (small-scale (1D LC/MS/MS) experiments) is 43%. Also, in the experiment on Jurkat cells [1] (setting [3]), the “Proteolysis of CCTδ, Ku80, LCOR, and RBBP7 (time course, immunoblot)” value is recorded as “partial cleavage”; the “Proteolysis of HDAC6, HDAC7, N-CoR, RCOR2, SHARP, TBLR1, UBP5, and UBP36 (time course, immunoblot)” value is “full cleavage”.
